Experimental data reported in patent US7927820B2 (priority 2004, dated 2011).
Read-outs that look alike come from different tables or passages of the source. Bridges are numbered along the chain shown (N, C = ends). Where no end group is shown, it is not given here.

What was measured:
[1] = molecular target: P/Q-type calcium channels (Homo sapiens, UniProt O00555); settings: cited from earlier work
[2] = molecular target: N-type calcium channels (Homo sapiens, UniProt Q00975); settings: cited from earlier work
N-type calcium channels, sequence (Q00975 whole entry, looked up): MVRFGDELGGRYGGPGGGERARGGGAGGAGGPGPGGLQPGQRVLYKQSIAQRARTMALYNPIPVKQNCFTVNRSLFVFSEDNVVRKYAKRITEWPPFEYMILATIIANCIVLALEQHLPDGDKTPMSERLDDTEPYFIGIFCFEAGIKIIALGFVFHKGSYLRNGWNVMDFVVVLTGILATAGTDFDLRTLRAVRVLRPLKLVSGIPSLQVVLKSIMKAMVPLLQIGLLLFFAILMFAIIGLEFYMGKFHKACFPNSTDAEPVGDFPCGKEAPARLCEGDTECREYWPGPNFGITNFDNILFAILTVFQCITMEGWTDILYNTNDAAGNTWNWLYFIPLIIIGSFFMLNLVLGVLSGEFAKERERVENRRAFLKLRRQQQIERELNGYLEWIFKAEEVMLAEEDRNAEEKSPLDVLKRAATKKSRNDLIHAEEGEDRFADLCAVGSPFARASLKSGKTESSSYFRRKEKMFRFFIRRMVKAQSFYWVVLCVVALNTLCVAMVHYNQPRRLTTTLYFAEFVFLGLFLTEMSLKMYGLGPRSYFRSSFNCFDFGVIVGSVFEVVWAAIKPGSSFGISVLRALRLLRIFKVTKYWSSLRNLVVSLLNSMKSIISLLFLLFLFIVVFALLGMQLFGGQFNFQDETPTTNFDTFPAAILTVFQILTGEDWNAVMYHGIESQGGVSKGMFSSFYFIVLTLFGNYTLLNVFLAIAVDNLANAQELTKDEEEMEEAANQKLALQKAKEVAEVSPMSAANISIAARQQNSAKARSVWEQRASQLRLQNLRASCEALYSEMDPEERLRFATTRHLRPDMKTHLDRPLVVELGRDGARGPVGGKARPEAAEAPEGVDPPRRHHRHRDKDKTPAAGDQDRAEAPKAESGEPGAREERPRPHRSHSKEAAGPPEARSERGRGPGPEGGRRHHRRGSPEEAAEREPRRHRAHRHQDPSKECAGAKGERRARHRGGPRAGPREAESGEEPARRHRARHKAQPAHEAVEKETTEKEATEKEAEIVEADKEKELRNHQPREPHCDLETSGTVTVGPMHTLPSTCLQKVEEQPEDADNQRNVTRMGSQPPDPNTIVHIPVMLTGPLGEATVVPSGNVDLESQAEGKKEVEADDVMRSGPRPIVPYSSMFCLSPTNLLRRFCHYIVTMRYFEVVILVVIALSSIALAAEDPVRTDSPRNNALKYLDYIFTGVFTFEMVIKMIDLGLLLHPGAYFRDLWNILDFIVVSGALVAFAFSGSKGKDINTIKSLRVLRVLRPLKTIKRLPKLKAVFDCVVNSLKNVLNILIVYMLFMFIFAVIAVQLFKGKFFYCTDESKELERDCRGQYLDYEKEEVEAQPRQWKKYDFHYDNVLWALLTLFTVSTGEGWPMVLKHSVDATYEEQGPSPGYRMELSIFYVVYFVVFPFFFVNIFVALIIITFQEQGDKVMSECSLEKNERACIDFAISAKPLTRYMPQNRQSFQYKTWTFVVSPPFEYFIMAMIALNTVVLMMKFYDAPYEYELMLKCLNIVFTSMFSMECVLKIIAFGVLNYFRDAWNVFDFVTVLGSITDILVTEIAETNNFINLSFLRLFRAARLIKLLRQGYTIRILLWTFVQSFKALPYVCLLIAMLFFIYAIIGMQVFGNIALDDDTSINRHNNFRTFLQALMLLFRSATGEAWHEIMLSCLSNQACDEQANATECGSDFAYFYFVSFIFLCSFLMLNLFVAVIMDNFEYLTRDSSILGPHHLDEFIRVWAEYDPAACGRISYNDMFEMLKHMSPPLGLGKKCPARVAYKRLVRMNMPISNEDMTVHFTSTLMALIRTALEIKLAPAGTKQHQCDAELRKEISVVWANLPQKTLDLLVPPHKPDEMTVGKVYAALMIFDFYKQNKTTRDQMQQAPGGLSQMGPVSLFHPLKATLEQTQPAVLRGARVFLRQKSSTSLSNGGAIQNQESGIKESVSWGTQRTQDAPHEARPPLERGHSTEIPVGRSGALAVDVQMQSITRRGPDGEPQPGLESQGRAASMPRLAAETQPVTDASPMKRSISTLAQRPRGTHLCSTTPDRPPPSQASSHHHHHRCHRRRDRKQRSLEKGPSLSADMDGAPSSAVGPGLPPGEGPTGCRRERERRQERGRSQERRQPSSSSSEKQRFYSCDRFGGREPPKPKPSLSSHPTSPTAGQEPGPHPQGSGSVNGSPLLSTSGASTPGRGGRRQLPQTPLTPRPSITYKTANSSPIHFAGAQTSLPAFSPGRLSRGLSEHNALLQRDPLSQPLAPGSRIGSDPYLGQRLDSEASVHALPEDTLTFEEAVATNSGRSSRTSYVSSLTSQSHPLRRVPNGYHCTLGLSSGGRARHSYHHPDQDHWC

[3] = molecular target: N-type calcium channels in cell membranes isolated from rat brain (Rattus norvegicus, UniProt Q02294); type: binding
N-type calcium channels in cell membranes isolated from rat brain, sequence (Q02294 whole entry, looked up): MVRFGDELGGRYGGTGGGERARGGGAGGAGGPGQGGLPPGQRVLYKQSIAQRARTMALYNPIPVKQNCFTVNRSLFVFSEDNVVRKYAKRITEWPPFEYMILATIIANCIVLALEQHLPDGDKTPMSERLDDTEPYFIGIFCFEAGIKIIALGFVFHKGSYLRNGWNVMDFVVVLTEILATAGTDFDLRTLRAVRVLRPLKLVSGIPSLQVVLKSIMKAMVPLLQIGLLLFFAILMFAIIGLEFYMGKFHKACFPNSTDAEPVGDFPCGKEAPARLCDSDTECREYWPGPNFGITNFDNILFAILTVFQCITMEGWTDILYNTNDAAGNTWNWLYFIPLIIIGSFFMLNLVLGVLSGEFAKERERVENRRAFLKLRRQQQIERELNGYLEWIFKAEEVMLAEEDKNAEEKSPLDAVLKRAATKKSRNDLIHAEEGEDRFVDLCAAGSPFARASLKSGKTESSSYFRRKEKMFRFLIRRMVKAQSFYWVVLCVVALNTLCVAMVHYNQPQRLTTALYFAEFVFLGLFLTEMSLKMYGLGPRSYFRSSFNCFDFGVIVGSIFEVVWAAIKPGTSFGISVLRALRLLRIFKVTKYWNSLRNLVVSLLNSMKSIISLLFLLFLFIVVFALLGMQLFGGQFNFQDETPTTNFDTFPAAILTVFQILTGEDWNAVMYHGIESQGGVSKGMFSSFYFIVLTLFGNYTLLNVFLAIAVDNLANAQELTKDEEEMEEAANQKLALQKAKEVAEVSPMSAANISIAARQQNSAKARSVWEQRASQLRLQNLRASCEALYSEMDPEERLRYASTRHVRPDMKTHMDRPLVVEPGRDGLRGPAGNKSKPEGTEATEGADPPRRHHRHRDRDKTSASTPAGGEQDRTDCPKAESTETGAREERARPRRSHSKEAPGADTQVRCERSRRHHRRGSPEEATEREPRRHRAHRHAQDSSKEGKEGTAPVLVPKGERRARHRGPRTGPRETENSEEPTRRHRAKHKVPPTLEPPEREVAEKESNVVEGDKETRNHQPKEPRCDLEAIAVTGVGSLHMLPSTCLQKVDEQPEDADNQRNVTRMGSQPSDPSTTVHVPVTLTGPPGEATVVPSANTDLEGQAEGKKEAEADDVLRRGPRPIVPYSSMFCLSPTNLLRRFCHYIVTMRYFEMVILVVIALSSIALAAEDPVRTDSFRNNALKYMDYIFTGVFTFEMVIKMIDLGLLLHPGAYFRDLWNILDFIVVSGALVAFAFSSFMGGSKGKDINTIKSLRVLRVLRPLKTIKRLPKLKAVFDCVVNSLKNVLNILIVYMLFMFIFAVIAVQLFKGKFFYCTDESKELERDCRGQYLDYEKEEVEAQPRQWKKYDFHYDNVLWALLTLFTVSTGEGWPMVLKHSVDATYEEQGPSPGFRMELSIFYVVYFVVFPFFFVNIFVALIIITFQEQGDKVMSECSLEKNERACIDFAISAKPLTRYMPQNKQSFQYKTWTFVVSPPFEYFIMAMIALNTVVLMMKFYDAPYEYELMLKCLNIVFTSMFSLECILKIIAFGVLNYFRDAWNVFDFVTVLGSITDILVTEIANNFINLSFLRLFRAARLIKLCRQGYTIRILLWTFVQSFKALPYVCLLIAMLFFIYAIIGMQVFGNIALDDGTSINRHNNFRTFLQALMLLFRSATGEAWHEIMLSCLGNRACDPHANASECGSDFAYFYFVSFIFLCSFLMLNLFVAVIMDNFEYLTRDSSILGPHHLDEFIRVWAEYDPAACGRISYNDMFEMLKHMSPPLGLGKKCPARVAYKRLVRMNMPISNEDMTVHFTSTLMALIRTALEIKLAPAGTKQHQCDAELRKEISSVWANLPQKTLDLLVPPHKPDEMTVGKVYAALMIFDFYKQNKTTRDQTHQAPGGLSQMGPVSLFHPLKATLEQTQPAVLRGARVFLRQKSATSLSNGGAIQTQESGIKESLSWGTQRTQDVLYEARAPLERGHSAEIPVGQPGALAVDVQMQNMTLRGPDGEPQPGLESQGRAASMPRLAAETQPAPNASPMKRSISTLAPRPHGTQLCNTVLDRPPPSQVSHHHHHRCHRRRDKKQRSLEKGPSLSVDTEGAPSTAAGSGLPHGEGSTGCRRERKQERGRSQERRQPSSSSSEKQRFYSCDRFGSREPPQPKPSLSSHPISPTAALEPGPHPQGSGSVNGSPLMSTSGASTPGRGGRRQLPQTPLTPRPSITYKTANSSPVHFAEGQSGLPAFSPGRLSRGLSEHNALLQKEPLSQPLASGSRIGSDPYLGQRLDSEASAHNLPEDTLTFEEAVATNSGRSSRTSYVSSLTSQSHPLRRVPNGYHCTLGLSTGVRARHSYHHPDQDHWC

Row | Substance | P/Q-type calcium channel inhibition or binding (description) [1] | N-type calcium channel block (description) [2] | relative binding affinity (order of displacement of [125I]GVIA binding) [3] | P/Q-type calcium channel inhibition or binding (description) ([1]; literature)
1 | ω-conotoxin MVIIC | potent inhibitor | weak inhibitor |  | 
2 | ω-conotoxin GVIA |  | potent and selective blocker | highest relative binding affinity | 
3 | KKKCIAKDYGRCKWGGTPCCRGRGCICSIMGTNCECKPRLIMEGLGLA (disulfide 4-20, 12-25, 19-36, 27-34 (inferred)) [ω-Agatoxin, ω-Agatoxin IVA] |  |  | lowest relative binding affinity | has been shown to bind
